Experimental data taken from patent US5216003A, “Diacid-containing benzimidazole compounds for treatment of neurotoxic injury” (G. D. Searle & Co., priority 1992, dated 1993).

How the values were obtained:
[1] = test system: NMDA receptor (rat brain hippocampal tissue); settings: evaluation of CPP binding to rat brain hippocampal tissue; Murphy et al 1987; cited from earlier work
[2] = molecular target: NMDA receptor (N-methyl-D-aspartate-specific L-[3H]glutamate recognition site in synaptic plasma membranes); experiment: NMDA-Selective Glutamate Binding Assay, L-[3H]glutamate; design: species or system rat; settings: 12.5 nM L-[3H]glutamate, pH 7.4, 0-4 °C, 10 min; read-out: [3H]GLU Ki
Procedure: (§1) Synaptic plasma membranes (SPM) were prepared as previously described [Monahan, J. B. and Michel, J., "Identification and Characterization of an N-methyl-D-aspartate-specific L[^3 H]glutamate Recognition Site in Synaptic Plasma Membranes", J. Neurochem., 48, 1699-1708 (1987)]. The SPM were stored at a concentration of 10-15 mg/ml in 0.32M sucrose, 0.5 mM EDTA, 1 mM MgSO4, 5 mM Tris/SO4, pH 7.4, under liquid nitrogen. The identity and purity of the subcellular fractions were confirmed by both electron microscopy and marker enzymes. Protein concentrations were determined by using a modification of the method of Lowry [Ohnishi, S. T. and Barr, J. K., "A Simplified Method of Quantitating Proteins Using the Biuret and Phenol Reagents", Anal. Biochem., 86, 193-197 (1978)]. The SPM were treated identically for the [^3 H]AMPA (QUIS), [^3 H]kainate and sodium-dependent L-[^3 H]-glumatate binding assays. […] Beckman MP scintillation cocktail containing 7 mL/l acetic acid was then added and the samples counted on a Beckman LS 5800 or 3801 liquid scintillation counter with automatic corrections for quenching and counting efficiency. […] Radioligand binding to the synaptic plasma membranes was analyzed using Scatchard and Hill transformations and the Ki values of the compounds determined using logit-log transformations. […]

Kainate (KA) receptor = experiment: [3H]kainate (KA) binding assay on synaptic plasma membranes; design: species or system rat; settings: 0.5 nM [3H]kainate, pH 7.4, 0-4 °C, 60 min
Procedure: as §1

[3] = molecular target: [3H]MK-801 binding in rat SPM; experiment: [3H]MK-801 Binding assay; settings: 5.0 nM [3H]MK-801, 10.0 nM L-glutamate, pH 7.4, 25 °C, 30 min
Procedure: Modulation of [^3 H]MK-801 binding was performed using Triton X-100 (0.04% v/v) treated rat SPM that had been extensively washed. Assay incubations were at 25° C. for 30 min. and contained 5.0 nM [^3 H]MK-801, L-glutamate (10.0 nM), and various concentrations of the tested compound in 50 mM Tris/acetate, pH 7.4. The assay was stopped by rapid filtration, using Brandel MB-48 Harvester, through Whatman GF/B filters treated with 0.05% polyethylenimine and the samples washed four times with 2.0 mL cold buffer. The radioactivity associated with the filter was determined by liquid scintillation spectrometry. Nonspecific binding was defined using 60 μM MK-801. IC50 were determined using a logit-log transformation of the binding data.

[4] = test system: pyramidal cells in CA1 of the hippocampus; experiment: Forebrain Ischemia Assay (bilateral carotid occlusion, neuron count); format: in vivo, Mongolian gerbil; settings: for # of Neurons/Field: 7 days
Procedure: This assay was used to determine the extent of protection afforded by compound of the invention to neural brain cells subjected to ischemic conditions. Male Mongolian gerbils, 50-70 gm, were used as subjects. Compound Example #1 was injected i.p. 30 minutes prior to carotid occlusion into 6 gerbils […]. In preparation for surgical procedures, the animals were lightly anesthetized with methoxyflurane and placed upside down on a heated pad with their snout within a nosecone. A 70:30 mixture of nitrous oxide and oxygen containing 0.5% halothane was circulated through the nosecone to provide continuous anesthesia throughout the surgical procedure. A midline incision was made in the neck and the carotid arteries were exposed. A length of suture thread was placed under each carotid. The thread was then tightened around each carotid and pressure applied to the thread to insure flow was occluded. Flow was occluded for 4-5 minutes and then the thread was removed. The carotids were visually inspected to confirm that reflow had occurred. The wound was then closed with autoclips and the gerbils allowed to recover. Following surgery, the gerbils were kept alive for 7 days. They were anesthetized with 100 mg/kg sodium pentobarbital and perfused transcardially with saline (with heparin) followed by buffered formalin. The brain was removed, trimmed and prepared for histological processing. Sections (10 microns) were stained with thionin. At 7 days following this type of transient global forebrain ischemia, damaged neurons in the vulnerable CAl region of the hippocampus have degenerated and been cleared away by glia. Quantification of the resulting lesion is made by counting the pyramidal cell somata in a 0.5 mm length of CAl of the hippocampus on the section corresponding to P 1.7 mm in the gerbil brain atlas. […] The effects of compound of Ex. #1 were assessed by comparing the number of neural cells found in the hippocampus of subjects treated with Ex. #1 compound with the cell number found in the appropriate control groups. […]

[5] = test system: tonic hindlimb extensor seizures; experiment: Anticonvulsant Assay (electroconvulsive shock); format: in vivo, male CD-1 mice; settings: 30 min prior to ECS; for Protected from ECS (% of Mice): 56 mg/kg s.c., n = 10, vehicle 5 (n = 20)
motor function = experiment: inverted screen test for motor impairment; format: in vivo, male CD-1 mice; settings: for Exhibiting Motor Impairments (% of Mice): 56 mg/kg s.c., n = 10, vehicle 10 (n = 20)
Procedure: This assay was used to determine the extent of in vivo protection against convulsions afforded by compound of the invention to mice subjected to artifically-induced convulsive conditions. Naive male CD-l mice (20-30 grams body weight) from Charles River Laboratories, Portage Mich. served as subjects. The mice had ad libitum access to food and water prior to testing and were maintained on a 12 hour light/12 hour dark schedule with testing during the light portion of the cycle. The mice were tested for motor impairment by use of the inverted screen test approximately 5 minutes prior to anticonvulsant testing. The inverted screen apparatus was similar to that described by Coughenour et al [Pharmacol. Biochem. Behav., 6, 351-353 (1977)]. Mice were placed on 13×13 cm pieces of #4 wire mesh screen which were mounted horizontally. The screens were then slowly inverted. […] Tonic hindlimb extensor seizures were then produced by application of electroconvulsive shock through concave electrodes to the eyeballs. Both the eyeballs and the electrodes were moistened with 0.9% saline to improve conductivity. The ECS stimulus was generated by use of a Grass model S48D stimulator with a Grass model CCUlA constant current unit in series with the output. Stimulation consisted of 10 msec pulses of a 60 pps single phase square wave for a duration of 200 msec. The current was held constant at 15 mA. Compound of Example #1 was suspended in a vehicle of 0.9% saline with a few drops of PG-Tween added. PG-Tween is a 1:1 mixture of propylene glycol and Tween 80. The Example #1 compound or vehicle was administered s.c. in a volume of 10 ml/kg body weight 30 minutes prior to application of the ECS stimulus. […] There were 10 mice in each treatment group.

| SMILES | NMDA antagonism [1] | Ki [2] [µM] | KA Ki (Kainate (KA) receptor) [µM] | Ki [3] [µM] | # of Neurons/Field ([4]; 300 mg/kg i.p. 30 min prior to carotid occlusion, control 19.8, p < 0.01) | # of Neurons/Field ([4]; 500 mg/kg i.p. 30 min prior to carotid occlusion, control 39.8, p < 0.005) | cell loss ([4]; i.p., 300 and 500 mg/kg, vs control, Mann-Whitney U test) | Protected from ECS (% of Mice) ([5]; Test A) | Protected from ECS (% of Mice) ([5]; Test B) | protection against tonic hindlimb extensor seizures ([5]; s.c.) | Exhibiting Motor Impairments (% of Mice) (motor function; Test A) | Exhibiting Motor Impairments (% of Mice) (motor function; Test B) | motor function (motor function; s.c., similar dose range as anticonvulsant effect) |
| --- | --- | --- | --- | --- | --- | --- | --- | --- | --- | --- | --- | --- | --- |
| O=C(O)C1CN(CCCP(=O)(O)O)CCN1 (stereo not shown) [CPP, 3-(2-carboxypiperazin-4-yl)propyl-1-phosphonic acid] | potent and selective NMDA antagonist | – | – | – | – | – | – | – | – | – | – | – | – |
| O=C(O)c1nc2cccc(CP(=O)(O)O)c2[nH]1 [Example 1, 2-carboxy-4-phosphonomethylbenzimidazole] | – | 1.6 | > 100 | 3.9 | 44.3 # of Neurons/Field | 137.4 # of Neurons/Field | significantly reduced | 50 % of Mice | 20 % of Mice | protected against tonic hindlimb extensor seizures in a dose-dependent fashion | 10 % of Mice | 0 % of Mice | impaired motor function in a similar dose range |
